# In article PMC11211886 (Frontiers in Pharmacology, 2024):
# Legend:
# [1] = system: plasma proteins; test: Plasma protein binding (RED), rat plasma; type: in vitro ADME
# Method: The plate containing plasma and buffer was equilibrated for 6 h in a 37°C water shaking bath. After incubation, aliquots of buffer and plasma (20 µL) on both sides were collected and precipitated using organic solvents. […] The post-dialysis recovery of amdizalisib was also measured.
# [2] = Metabolic stability in human liver microsomes; type: in vitro ADME
# Method: FMO was deactivated by heating liver microsomes at 45°C for 5 min. […] The natural logarithm of the percentage of the drug remaining was plotted against the incubation time, and the slope of the linear regression (-k) was converted to in vitro half-lives (t1/2) using the following equation: […] (1) metabolic clearance is the major mechanism of clearance; (2) liver is the major organ of clearance; and (3) oxidation is the major metabolic pathway. CLint,in vitro=k / Cmicrosomes , Scaled CLint,in vivo=CLint,in vitro×microsomes yield×liver weight, where Cmicrosomes means the experimental protein concentration (0.5 mg/mL) in the incubation system. […] Then, the scaled in vivo intrinsic clearance was used to predict the systemic clearance (equal to the hepatic clearance) using the well-stirred venous equilibration model ([Houston, 1994]).
# [3] = biological target: T1, CYP1A2 (Homo sapiens, UniProt P05177); test: Time-dependent CYP inhibition in HLM, CYP1A2; type: in vitro ADME; conditions: 10 μM, 30 min pre-incubation with NADPH
# T1 construct: tissue Life Technologies (Durham, NC, USA); host or cells: human liver microsomes
# T1 sequence (P05177 1-516): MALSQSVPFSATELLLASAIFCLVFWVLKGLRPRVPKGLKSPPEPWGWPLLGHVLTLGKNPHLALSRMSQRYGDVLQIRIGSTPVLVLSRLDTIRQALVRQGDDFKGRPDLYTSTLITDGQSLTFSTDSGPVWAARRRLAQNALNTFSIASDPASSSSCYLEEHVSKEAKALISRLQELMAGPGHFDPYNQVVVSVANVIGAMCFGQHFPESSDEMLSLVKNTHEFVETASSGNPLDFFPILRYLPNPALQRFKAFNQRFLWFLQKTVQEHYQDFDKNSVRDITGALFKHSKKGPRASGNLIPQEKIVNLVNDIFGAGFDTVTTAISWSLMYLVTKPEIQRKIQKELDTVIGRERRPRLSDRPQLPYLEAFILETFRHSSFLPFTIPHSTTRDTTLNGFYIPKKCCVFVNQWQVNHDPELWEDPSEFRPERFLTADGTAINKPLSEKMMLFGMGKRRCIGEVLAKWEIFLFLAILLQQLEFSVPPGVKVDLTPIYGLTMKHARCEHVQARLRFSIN
# Method: (§1) The procedure of time-dependent CYP inhibition was similar to that used for CYP reversible inhibition, as mentioned above, except that a pre-incubation step was added. […] Another appropriate volume of the NADPH-regenerating system and probe substrate were added to initiate the CYP isoform enzyme activity test step. For this step, the incubation period was 10 min, except for CYP2B6, CYP2C8, and CYP3A4/5 (probe substrate: midazolam), which was 3 min to make sure the reaction was under initial linear rates. After incubation for the designated time periods at 37°C, the ice-cold acetonitrile containing IS was added to quench the reaction. […] (Ainactivator/[…] represents the enzyme activity remaining due to the inhibition by the diluted inactivator in the enzyme activity test step, and (Ainactivator/[…] represents the remaining enzyme activity due to pre-incubation loss plus inhibition by the diluted inactivator in the enzyme activity test step.
# [4] = biological target: T2, CYP2C19 (Homo sapiens, UniProt P33261); test: Time-dependent CYP inhibition in HLM, CYP2C19; type: in vitro ADME; conditions: 10 μM, 30 min pre-incubation with NADPH
# T2 construct: tissue Life Technologies (Durham, NC, USA); host or cells: human liver microsomes
# Method: as §1
# [5] = system: CYP1A2; test: CYP induction in human hepatocytes, CYP1A2 enzyme activity
# Method: (§2) […] […] […] Enzyme activity for each CYP isoform was reported as a fold change over vehicle control and the percent of positive control (detailed calculation in Supplementary 1.1). Hepatocytes were harvested with a lysis buffer from RNeasy 96 Kit (Qiagen Inc., Germantown, MD, USA) to isolate RNA, which was analyzed by real-time quantitative polymerase chain reaction (RT-PCR). […] Emax (the maximal observed induction) and EC50 (the concentration that supports half-maximal induction) were estimated by non-linear regression of fold increase in CYP mRNA expression versus concentration plots.
# (§3) The fold of vehicle control and the percent of positive control were calculated with the formulas below:
# (§4) Fold of vehicle control = CYPs activity of test compound (or positive control) treated sample / CYPs activity of vehicle control treated sample
# (§5) % of positive control = [(fold change in treated sample)-1] / [(fold change in positive control)-1] × 100
# (§6) Based on the enzyme activity, a minimum of 2-fold increase compared to vehicle control for the positive control and ≥40% of the positive control for the test article was considered as the cutoff for a positive signal in in vitro induction assay.
# [6] = system: CYP2C19; test: CYP induction in human hepatocytes, CYP2C19 enzyme activity; type: in vitro ADME
# Method: as §2, §3, §4, §5, §6
# [7] = system: CYP2C9 mRNA; test: CYP induction in human hepatocytes, CYP2C9 mRNA (RT-PCR)
# Method: as §2, §5
# Based on the gene expression, a minimum of 4-fold increase of positive control compared to vehicle control, a minimum of 2-fold increase of the test article compared vehicle control and increased in a concentration-dependent manner was considered as the cutoff for a positive signal in in vitro induction assay.
# T2 sequence (P33261 whole entry): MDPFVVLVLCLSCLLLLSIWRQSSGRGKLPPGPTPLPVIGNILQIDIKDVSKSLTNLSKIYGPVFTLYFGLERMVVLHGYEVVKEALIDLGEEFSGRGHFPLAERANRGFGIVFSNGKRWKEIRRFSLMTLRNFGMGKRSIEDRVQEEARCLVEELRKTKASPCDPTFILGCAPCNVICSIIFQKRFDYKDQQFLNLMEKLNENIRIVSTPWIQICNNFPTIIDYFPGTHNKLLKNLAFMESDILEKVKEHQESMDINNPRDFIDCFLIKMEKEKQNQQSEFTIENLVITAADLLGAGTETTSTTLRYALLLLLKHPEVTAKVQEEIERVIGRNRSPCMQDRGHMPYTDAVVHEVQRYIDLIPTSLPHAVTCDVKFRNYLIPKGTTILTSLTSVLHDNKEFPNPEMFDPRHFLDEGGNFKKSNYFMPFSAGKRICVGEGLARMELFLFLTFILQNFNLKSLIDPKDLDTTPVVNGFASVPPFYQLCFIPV
smiles,measurement,setting,value
C[C@H](Nc1ncnc(N)c1C#N)c1cc2ncc(Cl)n2nc1-c1ccccc1 [Amdizalisib],"Binding fraction to plasma proteins, Rat",[1]; 0.1 µM,87.2 ± 1.72%
same,"Binding fraction to plasma proteins, Rat",[1]; 1 µM,90.2 ± 0.65%
same,"Binding fraction to plasma proteins, Rat",[1]; 20 µM,89.9 ± 0.37%
same,Predicted CL sys,"[2]; female human liver microsomes, FMO deactivation",5.07 mL/min/kg
same,CLint scaled at 1 µM,"[2]; female, human, microsomes, pH 7.4, Predicted CL int, iv vivo",5.78 mL/min/kg
same,half-life at 1 µM,"[2]; female, human, microsomes, pH 7.4, in vitro t1/2",2.32 h
same,parent drug remaining,"[2]; male, human, microsomes, 2 h, 1 µM, pH 7.4",> 80%
same,activity loss of CYP1A2,[3],less than 10%
same,activity loss of CYP2C19,[4],less than 10%
same,Enzyme activity Percent of PC (%),"[5]; CYP1A2, donor seven, 1 µM",1.00%
same,Enzyme activity Percent of PC (%),"[5]; CYP1A2, donor seven, 3 µM",-12.5%
same,Enzyme activity Percent of PC (%),"[5]; CYP1A2, donor seven, 10 µM",16.5%
same,Enzyme activity Percent of PC (%),"[5]; CYP1A2, donor seven, 20 µM",9.00%
same,Enzyme activity Percent of PC (%),"[5]; CYP1A2, donor seven, 30 µM",16.6%
same,Enzyme activity Percent of PC (%),"[5]; CYP1A2, donor six, 1 µM",2.40%
same,Enzyme activity Percent of PC (%),"[5]; CYP1A2, donor six, 3 µM",3.90%
same,Enzyme activity Percent of PC (%),"[5]; CYP1A2, donor six, 10 µM",7.60%
same,Enzyme activity Percent of PC (%),"[5]; CYP1A2, donor six, 20 µM",14.9%
same,Enzyme activity Percent of PC (%),"[5]; CYP1A2, donor six, 30 µM",7.30%
same,Enzyme activity Percent of PC (%),"[5]; CYP1A2, donor two, 1 µM",1.50%
same,Enzyme activity Percent of PC (%),"[5]; CYP1A2, donor two, 3 µM",0.30%
same,Enzyme activity Percent of PC (%),"[5]; CYP1A2, donor two, 10 µM",7.30%
same,Enzyme activity Percent of PC (%),"[5]; CYP1A2, donor two, 20 µM",8.90%
same,Enzyme activity Percent of PC (%),"[5]; CYP1A2, donor two, 30 µM",14.6%
same,induction of CYP1A2 enzyme activity,"[5]; up to 30.0 µM, all three donors",not considered an inducer
same,Enzyme activity Percent of PC (%),"[6]; CYP2C19, donor eight, 0.3 µM",2.58%
same,Enzyme activity Percent of PC (%),"[6]; CYP2C19, donor eight, 3 µM",-3.72%
same,Enzyme activity Percent of PC (%),"[6]; CYP2C19, donor eight, 20 µM",-16.6%
same,Enzyme activity Percent of PC (%),"[6]; CYP2C19, donor four, 0.3 µM",-2.17%
same,Enzyme activity Percent of PC (%),"[6]; CYP2C19, donor four, 3 µM",-13.5%
same,Enzyme activity Percent of PC (%),"[6]; CYP2C19, donor four, 20 µM",-28.3%
same,Enzyme activity Percent of PC (%),"[6]; CYP2C19, donor one, 0.3 µM",6.39%
same,Enzyme activity Percent of PC (%),"[6]; CYP2C19, donor one, 3 µM",1.83%
same,Enzyme activity Percent of PC (%),"[6]; CYP2C19, donor one, 20 µM",-19.2%
same,induction of CYP2C19 enzyme activity,"[6]; up to 20 µM, all three donors",no induction potential
same,induction on CYP2C9 mRNA expression,[7]; 20 uM,">2-fold induction on CYP1A2, 2B6, 3A4, 2C9 mRNA expression at 20 uM"
same,Gene expression Percent of PC (%),"[7]; CYP2C9, donor eight, 0.3 µM",5.23%
same,Gene expression Percent of PC (%),"[7]; CYP2C9, donor eight, 3 µM",20.0%
same,Gene expression Percent of PC (%),"[7]; CYP2C9, donor eight, 20 µM",54.5%
same,Gene expression Percent of PC (%),"[7]; CYP2C9, donor four, 0.3 µM",16.1%
same,Gene expression Percent of PC (%),"[7]; CYP2C9, donor four, 3 µM",28.8%
same,Gene expression Percent of PC (%),"[7]; CYP2C9, donor four, 20 µM",81.6%
same,Gene expression Percent of PC (%),"[7]; CYP2C9, donor one, 0.3 µM",12.7%
same,Gene expression Percent of PC (%),"[7]; CYP2C9, donor one, 3 µM",18.0%
same,Gene expression Percent of PC (%),"[7]; CYP2C9, donor one, 20 µM",59.0%
